According to ChEMBL document CHEMBL5291721, “A preclinical secondary pharmacology resource illuminates target-adverse drug reaction associations of marketed drugs” (Nat Commun, 2023):

Assays:
Adenosine receptor A3 = target: T1, Adenosine receptor A3 (Homo sapiens, UniProt P0DMS8)
T1 sequence (P0DMS8 whole entry): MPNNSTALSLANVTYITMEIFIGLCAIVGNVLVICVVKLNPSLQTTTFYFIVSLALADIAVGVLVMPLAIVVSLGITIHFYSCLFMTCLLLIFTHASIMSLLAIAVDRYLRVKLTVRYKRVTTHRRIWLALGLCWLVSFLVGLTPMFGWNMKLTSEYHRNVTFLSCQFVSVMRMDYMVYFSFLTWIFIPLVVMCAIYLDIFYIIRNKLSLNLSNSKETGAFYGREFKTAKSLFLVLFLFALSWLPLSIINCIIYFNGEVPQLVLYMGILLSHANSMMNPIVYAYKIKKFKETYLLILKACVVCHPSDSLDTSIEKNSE

[1] = target: T2, Alpha-2A adrenergic receptor (Homo sapiens, UniProt P08913); format: functional, cell-based
T2 sequence (P08913 whole entry): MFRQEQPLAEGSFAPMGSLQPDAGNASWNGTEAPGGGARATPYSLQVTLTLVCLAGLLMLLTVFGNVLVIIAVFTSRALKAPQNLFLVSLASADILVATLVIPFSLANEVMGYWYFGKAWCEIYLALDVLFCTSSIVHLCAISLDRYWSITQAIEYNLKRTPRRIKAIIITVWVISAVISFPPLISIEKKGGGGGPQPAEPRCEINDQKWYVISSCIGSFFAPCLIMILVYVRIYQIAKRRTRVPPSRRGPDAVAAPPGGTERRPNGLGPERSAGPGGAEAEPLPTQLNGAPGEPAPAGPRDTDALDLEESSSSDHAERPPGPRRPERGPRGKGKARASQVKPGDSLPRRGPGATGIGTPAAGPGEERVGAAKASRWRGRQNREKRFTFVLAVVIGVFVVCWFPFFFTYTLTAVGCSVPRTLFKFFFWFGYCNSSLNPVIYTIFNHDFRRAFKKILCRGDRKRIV

Adenosine receptor A1 = target: T3, Adenosine receptor A1 (Homo sapiens, UniProt P30542)
T3 sequence (P30542 whole entry): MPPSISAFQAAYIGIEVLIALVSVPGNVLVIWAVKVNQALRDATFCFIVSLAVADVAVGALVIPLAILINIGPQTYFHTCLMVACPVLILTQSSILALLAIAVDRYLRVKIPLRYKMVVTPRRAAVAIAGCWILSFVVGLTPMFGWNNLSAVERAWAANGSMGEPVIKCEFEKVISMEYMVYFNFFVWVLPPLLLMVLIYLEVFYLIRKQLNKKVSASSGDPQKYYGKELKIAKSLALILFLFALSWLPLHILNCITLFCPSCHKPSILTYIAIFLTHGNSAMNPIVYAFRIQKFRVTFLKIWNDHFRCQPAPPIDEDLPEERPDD

D(3) dopamine receptor = D(3) dopamine receptor (Homo sapiens, UniProt P35462)
Sequence of D(3) dopamine receptor (P35462 whole entry): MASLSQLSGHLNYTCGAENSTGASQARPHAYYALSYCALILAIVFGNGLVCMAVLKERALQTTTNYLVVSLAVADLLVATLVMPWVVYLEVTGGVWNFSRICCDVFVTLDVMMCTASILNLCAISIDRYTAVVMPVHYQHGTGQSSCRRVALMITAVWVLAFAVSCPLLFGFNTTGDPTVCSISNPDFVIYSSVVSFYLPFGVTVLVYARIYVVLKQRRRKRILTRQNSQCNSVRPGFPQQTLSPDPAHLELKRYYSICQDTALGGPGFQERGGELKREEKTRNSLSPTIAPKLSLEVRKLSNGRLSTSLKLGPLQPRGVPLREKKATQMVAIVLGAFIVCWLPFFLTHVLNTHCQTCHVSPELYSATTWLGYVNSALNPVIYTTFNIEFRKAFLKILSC

Thromboxane A2 receptor = target: T4, Thromboxane A2 receptor (Homo sapiens, UniProt P21731)
T4 sequence (P21731 whole entry): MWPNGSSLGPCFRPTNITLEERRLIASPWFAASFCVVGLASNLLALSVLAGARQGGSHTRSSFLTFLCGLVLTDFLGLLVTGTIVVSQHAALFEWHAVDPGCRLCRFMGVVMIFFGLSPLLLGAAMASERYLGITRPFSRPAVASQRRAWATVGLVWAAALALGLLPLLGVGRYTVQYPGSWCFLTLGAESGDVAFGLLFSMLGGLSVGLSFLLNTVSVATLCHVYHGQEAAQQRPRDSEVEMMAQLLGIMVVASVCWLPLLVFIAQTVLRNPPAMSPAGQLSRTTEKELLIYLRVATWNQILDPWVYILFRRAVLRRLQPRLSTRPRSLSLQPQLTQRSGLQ

B2 bradykinin receptor = target: T5, B2 bradykinin receptor (Homo sapiens, UniProt P30411)
T5 sequence (P30411 whole entry): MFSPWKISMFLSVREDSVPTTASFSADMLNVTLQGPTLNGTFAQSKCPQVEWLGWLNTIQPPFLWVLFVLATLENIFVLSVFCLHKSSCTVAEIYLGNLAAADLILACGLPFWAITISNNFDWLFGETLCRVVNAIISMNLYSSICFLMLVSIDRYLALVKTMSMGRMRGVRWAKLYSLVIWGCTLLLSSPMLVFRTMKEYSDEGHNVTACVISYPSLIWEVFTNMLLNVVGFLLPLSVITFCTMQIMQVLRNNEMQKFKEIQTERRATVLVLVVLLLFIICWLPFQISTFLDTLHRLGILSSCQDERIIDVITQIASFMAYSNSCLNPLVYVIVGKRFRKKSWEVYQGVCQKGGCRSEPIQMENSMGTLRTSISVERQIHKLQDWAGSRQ

[2] = target: T6, Neuropeptide Y receptor type 1 (Homo sapiens, UniProt P25929); conditions: read-out: AC50
T6 sequence (P25929 whole entry): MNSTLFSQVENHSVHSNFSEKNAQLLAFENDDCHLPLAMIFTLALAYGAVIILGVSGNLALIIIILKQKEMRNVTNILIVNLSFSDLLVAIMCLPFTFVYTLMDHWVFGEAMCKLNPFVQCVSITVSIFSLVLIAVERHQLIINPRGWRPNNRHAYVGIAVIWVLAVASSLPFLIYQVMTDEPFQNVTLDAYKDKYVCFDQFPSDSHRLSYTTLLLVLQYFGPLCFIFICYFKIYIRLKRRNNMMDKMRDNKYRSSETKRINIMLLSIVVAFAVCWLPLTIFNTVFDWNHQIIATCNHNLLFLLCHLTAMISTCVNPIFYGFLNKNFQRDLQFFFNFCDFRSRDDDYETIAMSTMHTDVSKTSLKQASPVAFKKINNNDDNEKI

Adenosine receptor A2a = Adenosine receptor A2a (Homo sapiens, UniProt P29274)
Sequence of Adenosine receptor A2a (P29274 whole entry): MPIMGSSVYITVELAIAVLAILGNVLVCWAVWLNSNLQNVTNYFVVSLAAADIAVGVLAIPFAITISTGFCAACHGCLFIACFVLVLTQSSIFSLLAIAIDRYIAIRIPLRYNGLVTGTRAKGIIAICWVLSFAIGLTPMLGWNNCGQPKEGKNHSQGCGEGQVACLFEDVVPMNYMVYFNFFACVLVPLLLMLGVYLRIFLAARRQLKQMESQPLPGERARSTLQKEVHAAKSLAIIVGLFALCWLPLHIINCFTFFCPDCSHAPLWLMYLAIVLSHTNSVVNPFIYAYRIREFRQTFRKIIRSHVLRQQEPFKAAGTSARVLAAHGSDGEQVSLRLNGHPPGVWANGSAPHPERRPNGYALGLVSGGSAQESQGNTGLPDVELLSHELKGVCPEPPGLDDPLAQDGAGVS

[3] = target: T7, Muscarinic acetylcholine receptor M2 (Homo sapiens, UniProt P08172); format: functional, cell-based
T7 sequence (P08172 whole entry): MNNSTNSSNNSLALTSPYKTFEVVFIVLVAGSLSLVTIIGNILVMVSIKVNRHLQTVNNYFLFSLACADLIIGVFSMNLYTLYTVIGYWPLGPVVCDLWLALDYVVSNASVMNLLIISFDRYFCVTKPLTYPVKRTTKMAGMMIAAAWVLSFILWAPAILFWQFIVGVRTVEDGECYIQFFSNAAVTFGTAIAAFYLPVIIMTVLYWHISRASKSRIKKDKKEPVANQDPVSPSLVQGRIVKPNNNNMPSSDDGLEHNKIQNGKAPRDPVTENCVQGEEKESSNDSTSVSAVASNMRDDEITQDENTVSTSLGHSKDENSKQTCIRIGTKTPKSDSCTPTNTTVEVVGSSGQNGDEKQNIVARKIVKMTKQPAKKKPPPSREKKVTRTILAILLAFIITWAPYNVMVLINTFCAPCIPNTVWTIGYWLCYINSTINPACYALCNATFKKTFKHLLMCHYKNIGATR
Note: assay procedure not described here.

Row | Compound | AC50 (Adenosine receptor A3) | AC50 [1] | AC50 (Adenosine receptor A1) | AC50 (D(3) dopamine receptor) | AC50 (Thromboxane A2 receptor) | AC50 (B2 bradykinin receptor) | AC50 [2] | AC50 (Adenosine receptor A2a) | AC50 [3]
1 | N#Cc1ccc2c(c1)N(CCCN1CCC(O)CC1)c1ccccc1S2 [PERICIAZINE] | > 30 µM | – | – | – | – | – | – | – | –
2 | OC[C@H]1O[C@@H](c2ccc(F)c(Cc3cc4ccccc4s3)c2)[C@H](O)[C@@H](O)[C@@H]1O [IPRAGLIFLOZIN] | > 30 µM | – | – | – | – | – | – | – | –
3 | CN1CCC(=C2c3ccccc3Sc3ccccc32)CC1 [PIMETHIXENE] | 25.9 µM | – | – | – | – | – | – | – | –
4 | O=C(O)COc1ccc(C(=O)c2cccs2)c(Cl)c1Cl | > 30 µM | – | – | – | – | – | – | – | –
5 | C[C@]1(Cn2ccnn2)[C@H](C(=O)O)N2C(=O)C[C@H]2S1(=O)=O [TAZOBACTAM] | > 30 µM | – | – | – | – | – | – | – | –
6 | FC(F)(F)c1ccc(CNc2ccc(Cc3c[nH]c4ncc(Cl)cc34)cn2)cn1 [PEXIDARTINIB] | 3.69 µM | – | – | – | – | – | – | – | –
7 | [H]/N=C(\N/C(=N/[H])Nc1ccc(Cl)cc1)NC(C)C [PROGUANIL] | > 30 µM | – | – | – | – | – | – | – | –
8 | C[C@H]1O[C@@H](n2cc(F)c(=O)[nH]c2=O)[C@H](O)[C@@H]1O [DOXIFLURIDINE] | > 30 µM | – | – | – | – | – | – | – | –
9 | CC(=O)Oc1cc(C(F)(F)F)ccc1C(=O)O [TRIFLUSAL] | > 30 µM | – | – | – | – | – | – | – | –
10 | N[C@@H](CS)C(=O)O [CYSTEINE] | > 30 µM | – | – | – | – | – | – | – | –
11 | CCn1cc(C(=O)O)c(=O)c2cc3c(cc21)OCO3 [OXOLINIC ACID] | > 30 µM | – | – | – | – | – | – | – | –
12 | CC(C)C[C@H](NC(=O)CNC(=O)c1cc(Cl)ccc1Cl)B(O)O [IXAZOMIB] | > 30 µM | – | – | – | – | – | – | – | –
13 | O=C(O)c1cc(/N=N/c2ccc(O)c(C(=O)O)c2)ccc1O [OLSALAZINE] | > 30 µM | – | – | – | – | – | – | – | –
14 | CCCN(CCC)C(=O)Cc1c(-c2ccc(Cl)cc2)nc2ccc(Cl)cn12 [ALPIDEM] | – | > 30 µM | > 30 µM | > 30 µM | > 30 µM | > 30 µM | > 30 µM | > 30 µM | > 30 µM
15 | CCCC(CCC)C(=O)O [VALPROIC ACID] | – | > 10 µM | > 30 µM | 4.7 µM | > 30 µM | > 30 µM | > 30 µM | > 30 µM | > 10 µM
16 | COc1cc2nc(N3CCN(C(=O)C4CCCO4)CC3)nc(N)c2cc1OC (stereo not given) [TERAZOSIN] | – | > 30 µM | > 30 µM | > 30 µM | > 30 µM | > 30 µM | > 30 µM | > 30 µM | > 10 µM
17 | CN1C(C(=O)Nc2ccccn2)=C(O)c2ccccc2S1(=O)=O [PIROXICAM] | – | > 10 µM | > 10 µM | > 30 µM | > 10 µM | > 10 µM | > 10 µM | > 10 µM | > 10 µM
18 | CC(C(=O)O)c1ccc2c(c1)[nH]c1ccc(Cl)cc12 (stereo not given) [CARPROFEN] | – | > 10 µM | > 30 µM | > 30 µM | > 30 µM | > 30 µM | > 10 µM | > 30 µM | > 10 µM
19 | O=C1CN(/N=C/c2ccc(-c3ccc([N+](=O)[O-])cc3)o2)C(O)=N1 [DANTROLENE] | – | > 10 µM | 25 µM | > 30 µM | > 10 µM | > 10 µM | > 10 µM | > 30 µM | > 10 µM
20 | CN(C)CCc1c[nH]c2ccc(Cn3cncn3)cc12 [RIZATRIPTAN] | – | > 30 µM | > 30 µM | > 30 µM | > 30 µM | > 30 µM | > 30 µM | > 30 µM | > 30 µM
21 | C[C@]12C=CC(=O)N[C@@H]1CC[C@@H]1[C@@H]2CC[C@]2(C)[C@@H](C(=O)Nc3cc(C(F)(F)F)ccc3C(F)(F)F)CC[C@@H]12 [DUTASTERIDE] | – | > 10 µM | > 10 µM | > 30 µM | > 10 µM | > 10 µM | > 10 µM | > 10 µM | > 10 µM
22 | COc1ccccc1OCCNCC(O)COc1cccc2[nH]c3ccccc3c12 (stereo not given) [CARVEDILOL] | – | 3.09 µM | > 30 µM | 0.47 µM | > 30 µM | > 30 µM | 25.3 µM | > 30 µM | > 10 µM
23 | CC(C)N(CCC(C(N)=O)(c1ccccc1)c1ccccn1)C(C)C (stereo not given) [DISOPYRAMIDE] | – | > 10 µM | > 30 µM | > 30 µM | > 30 µM | > 30 µM | > 30 µM | > 30 µM | > 10 µM
24 | CN(C)CC[C@@H](c1ccc(Cl)cc1)c1ccccn1 [DEXCHLORPHENIRAMINE] | – | > 30 µM | > 30 µM | > 30 µM | > 30 µM | > 30 µM | > 30 µM | > 30 µM | > 30 µM
25 | N[C@@H](CC(=O)N1CCn2c(nnc2C(F)(F)F)C1)Cc1cc(F)c(F)cc1F [SITAGLIPTIN] | – | > 30 µM | > 30 µM | > 30 µM | > 10 µM | > 10 µM | > 10 µM | > 30 µM | > 30 µM
26 | CC(N)C12CC3CC(CC(C3)C1)C2 (stereo not given) [RIMANTADINE] | – | > 10 µM | > 10 µM | > 30 µM | > 10 µM | > 10 µM | > 10 µM | > 10 µM | > 10 µM
27 | C=CC[C@@H]1/C=C(\C)C[C@H](C)C[C@H](OC)[C@H]2O[C@@](O)(C(=O)C(=O)N3CCCC[C@H]3C(=O)O[C@H](/C(C)=C/[C@@H]3CC[C@@H](O)[C@H](OC)C3)[C@H](C)[C@@H](O)CC1=O)[C@H](C)C[C@@H]2OC [TACROLIMUS ANHYDROUS] | – | > 10 µM | > 30 µM | > 30 µM | 15.3 µM | > 30 µM | > 30 µM | > 30 µM | > 10 µM
